{"source": "patent US11446287B2", "about": "“Compounds and methods for EP300 or CBP modulation and indications therefor” (Opna Immuno-Oncology SA, priority 2019, dated 2022)"}
{"biological_target": "T1, Recombinant human EP300 containing the bromodomain (EP300-BD (1040-1161)) (Homo sapiens, UniProt Q09472)", "T1 construct": "Recombinant human EP300 bromodomain (EP300-BD (1040-1161)); made in house; host or cells: E. coli BL21-CodonPlus (DE3), modified pET vector", "T1 sequence (Q09472 1040-1161)": "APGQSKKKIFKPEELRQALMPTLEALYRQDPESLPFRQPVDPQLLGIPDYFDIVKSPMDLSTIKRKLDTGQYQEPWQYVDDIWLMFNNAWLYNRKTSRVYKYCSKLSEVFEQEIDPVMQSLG", "assay": "EP300 Alphascreen binding assay", "method": "EP300 Alphascreen Binding Assay\nBinding of compounds of Formula (I) with EP300 was assessed using Alphascreen™ binding assay. The inhibition of the interaction between the EP300 bromodomain and its acetylated target protein was measured quantitatively using recombinant EP300 protein, an acetylated Histone 3 peptide and AlphaScreen™ technology. In absence of inhibition of the EP300 protein bound to AlphaScreen™ nickel chelate acceptor beads can interact with the acetylated Histone 3 peptide which is immobilized by the AlphaScreen™ Streptavidin coated beads. This interaction brings donor and acceptor beads in proximity. The close proximity allows the singlet oxygen produced by laser excitation of the donor beads to reach the acceptor beads and generate a luminescence signal. EP300 inhibitors result in a decrease in the proximity signal through an inhibition of the EP300—acetylated peptide interaction.\nRecombinant human EP300 containing the bromodomain (EP300-BD (1040-1161)) was prepared and purified as described in protein expression and purification session. The peptide is human Histone H345-64K56Ac-Biotin (Anaspec CA, USA).\nProtocol for EP300 assay: All components were prepared in buffer composed of 50 mM HEPES pH 7.5, 50 mM NaCl, 0.01% BSA, 0.01% Triton X-100, 2 mM DTT. Test compounds and DMSO vehicle were diluted 1:50 in buffer and a 4 μL volume is transferred to an Alphaplate. 5.5 μL of EP300 protein and 5.5 μL of peptide were added to wells containing 4 μL of various concentrations of test compounds of Formula (I) or DMSO vehicle in an Alphaplate (PerkinElmer GA, USA) and incubated for 1 hour at room temperature. 5 μL donor and acceptor bead mixture was then added with final concentrations of 7.5 μg/ml. 60 minutes after bead addition, Alpha signal is read on the Envision spectrometer (λEx 680 nm, λEm 520-620 nm). Final concentrations of bromodomain proteins and peptide are as shown below.\nAll data were normalized to the mean of 16 high and 16 low control wells on each plate. A four parameter curve fit of the following formula was then applied: Y=A+((B−A)/(1+((C/x)^D))) Where ‘A’ is the minimum, ‘B’ is the maximum, ‘C’ is the IC50 and ‘D’ is the Hill slope. Protein Expression and Purification\nRecombinant human EP300 bromodomain (EP300-BD (1040-1161)) was expressed in E. coli cells (in a modified pET vector) with an N-terminal six-His tag and purified using a combination of both IMAC (Ni-affinity) and size exclusion chromatography steps.\nRecombinant EP300 protein was expressed using the E. coli strain BL21-CodonPlus (DE3) (Agilent Technologies CA, USA). Cells were grown in Terrific Broth (TB) media to an OD600 of 0.7 at 37° C. at which temperature was reduced to 18° C., protein was induced with 1.0 mM isopropyl-β-D-thiogalactopyranoside (“IPTG”) for 20 hours and harvested by centrifugation at 8500×g for 20 minutes. Cells were re-suspended in 0.1M K2PO4 pH 8.0, 250 mM NaCl, 10% Glycerol, 0.75% NP-40, 25 mM Imidazole, with 0.2 mg/ml Lysozyme, 0.2 mM phenylmethanesulfonyl fluoride (“PMSF”), 25 μg/ml DNase I, incubated on ice for 30 minutes and lysed with a cell disruptor (MicroFluidics MA, USA). The lysate was clarified by centrifugation at 20,000×g for 1 hour. The protein was captured with Ni-NTA resin (Life Technologies, USA). Contaminating proteins were washed off with 50 mM HEPES pH 7.5, 500 mM NaCl, and 5% Glycerol. Following 3× wash steps, protein was eluted step wise using 10, 25, 50, 100, 150, and 250 mM Imidazole in 50 mM HEPES pH 7.5, 500 mM NaCl, and 5% glycerol. The protein was further purified using a size exclusion column (26/600 Superdex 200, GE Biosciences NJ, USA) in 10 mM HEPES pH 7.5, […].", "units": {"IC50": "µM"}}
{"compound": "Cc1noc(C)c1-c1cnc2c(c1)c(-c1ccc(C(=O)O)cc1OC1COC1)cn2[C@@H](C)c1ccccn1", "note": "[P-0137, (S)-4-(5-(3,5-dimethylisoxazol-4-yl)-1-(1-(pyridin-2-yl)ethyl)-1H-pyrrolo[2,3-b]pyridin-3-yl)-3-(oxetan-3-yloxy)benzoic acid]", "IC50": "0.0001 to 1"}
{"compound": "Cc1noc(C)c1-c1cnc2c(c1)c(-c1ccc(C(=O)O)cc1OCC1CC1)cn2[C@@H](C)c1ccccn1", "note": "[P-0138, (S)-3-(cyclopropylmethoxy)-4-(5-(3,5-dimethylisoxazol-4-yl)-1-(1-(pyridin-2-yl)ethyl)-1H-pyrrolo[2,3-b]pyridin-3-yl)benzoic acid]", "IC50": "0.0001 to 1"}
{"compound": "Cc1noc(C)c1-c1cnc2c(c1)c(-c1ccc(C(=O)O)cc1OCc1ccccc1)cn2[C@@H](C)c1ccccn1", "note": "[P-0139, (S)-3-(benzyloxy)-4-(5-(3,5-dimethylisoxazol-4-yl)-1-(1-(pyridin-2-yl)ethyl)-1H-pyrrolo[2,3-b]pyridin-3-yl)benzoic acid]", "IC50": "0.0001 to 1"}
{"compound": "COc1ccc(C(=O)O)cc1-c1cn(C(C)c2ccccc2)c2cc(-c3c(C)noc3C)cnc12", "note": "(centres unmarked) [P-0140, 3-(6-(3,5-dimethylisoxazol-4-yl)-1-(1-phenylethyl)-1H-pyrrolo[3,2-b]pyridin-3-yl)-4-methoxybenzoic acid]", "IC50": "0.0001 to 1"}
{"compound": "Cc1noc(C)c1-c1cnc2c(-c3cc(C(=O)O)ccc3Cl)cn(C(C)c3ccccc3)c2c1", "note": "(centres unmarked) [P-0141, 4-chloro-3-(6-(3,5-dimethylisoxazol-4-yl)-1-(1-phenylethyl)-1H-pyrrolo[3,2-b]pyridin-3-yl)benzoic acid]", "IC50": "0.0001 to 1"}
{"compound": "COc1cc(C(=O)O)ccc1-c1cn([C@@H](C)c2ccccn2)c2cc(-c3c(C)noc3C)cnc12", "note": "[P-0142, (S)-4-(6-(3,5-dimethylisoxazol-4-yl)-1-(1-(pyridin-2-yl)ethyl)-1H-pyrrolo[3,2-b]pyridin-3-yl)-3-methoxybenzoic acid]", "IC50": "0.0001 to 1"}
{"compound": "Cc1noc(C)c1-c1cnc2c(CC3CCC3)cn(-c3ccc(O)nc3)c2c1", "note": "[P-0143, 5-(3-(cyclobutylmethyl)-6-(3,5-dimethylisoxazol-4-yl)-1H-pyrrolo[3,2-b]pyridin-1-yl)pyridin-2-ol]", "IC50": "1 to 8"}
{"compound": "COc1cc(C(=O)O)cc(O)c1-c1cn([C@@H](C)c2ccccn2)c2ncc(-c3c(C)noc3C)cc12", "note": "[P-0144, (S)-4-(5-(3,5-dimethylisoxazol-4-yl)-1-(1-(pyridin-2-yl)ethyl)-1H-pyrrolo[2,3-b]pyridin-3-yl)-3-hydroxy-5-methoxybenzoic acid]", "IC50": "0.0001 to 1"}
{"compound": "Cc1noc(C)c1-c1cnc2c(c1)c(-c1ccnc(O)c1)cn2[C@@H](C)c1ccccn1", "note": "[P-0145, (S)-4-(5-(3,5-dimethylisoxazol-4-yl)-1-(1-(pyridin-2-yl)ethyl)-1H-pyrrolo[2,3-b]pyridin-3-yl)pyridin-2-ol]", "IC50": "1 to 8"}
{"compound": "COc1cc(C(=O)O)cc(OC)c1-c1cn([C@@H](C)c2ccccn2)c2cc(-c3c(C)noc3C)cnc12", "note": "[P-0146, (S)-4-(6-(3,5-dimethylisoxazol-4-yl)-1-(1-(pyridin-2-yl)ethyl)-1H-pyrrolo[3,2-b]pyridin-3-yl)-3,5-dimethoxybenzoic acid]", "IC50": "1 to 8"}
{"compound": "CCOc1cc(C(=O)O)cc(OCC)c1-c1cn([C@@H](C)c2ccccn2)c2ncc(-c3c(C)noc3C)cc12", "note": "[P-0147, (S)-4-(5-(3,5-dimethylisoxazol-4-yl)-1-(1-(pyridin-2-yl)ethyl)-1H-pyrrolo[2,3-b]pyridin-3-yl)-3,5-diethoxybenzoic acid]", "IC50": "0.0001 to 1"}
{"compound": "CC[C@@H](c1ccccn1)n1cc(-c2cc(C(=O)O)ccc2Cl)c2ncc(-c3c(C)noc3C)cc21", "note": "[P-0148, (S)-4-chloro-3-(6-(3,5-dimethylisoxazol-4-yl)-1-(1-(pyridin-2-yl)propyl)-1H-pyrrolo[3,2-b]pyridin-3-yl)benzoic acid]", "IC50": "0.0001 to 1"}
{"compound": "Cc1noc(C)c1-c1cc2c(cn1)c(CC1CCC1)cn2-c1c(Cl)cc(C(=O)O)cc1Cl", "note": "[P-0149, 3,5-dichloro-4-(3-(cyclobutylmethyl)-6-(3,5-dimethylisoxazol-4-yl)-1H-pyrrolo[3,2-c]pyridin-1-yl)benzoic acid]", "IC50": "0.0001 to 1"}
{"compound": "Cc1noc(C)c1-c1cnc2c(-c3ccccc3)cn(-c3c(Cl)cc(C(=O)O)cc3Cl)c2c1", "note": "[P-0150, 3,5-dichloro-4-(6-(3,5-dimethylisoxazol-4-yl)-3-phenyl-1H-pyrrolo[3,2-b]pyridin-1-yl)benzoic acid]", "IC50": "0.0001 to 1"}
{"compound": "Cc1noc(C)c1-c1cnc2c(C3=CCOCC3)cn(-c3c(Cl)cc(C(=O)O)cc3Cl)c2c1", "note": "[P-0151, 3,5-dichloro-4-(3-(3,6-dihydro-2H-pyran-4-yl)-6-(3,5-dimethylisoxazol-4-yl)-1H-pyrrolo[3,2-b]pyridin-1-yl)benzoic acid]", "IC50": "0.0001 to 1"}
{"compound": "COc1cc(C(=O)O)cc(OCC2CC2)c1-c1cn([C@@H](C)c2ccccn2)c2ncc(-c3c(C)noc3C)cc12", "note": "[P-0152, (S)-3-(cyclopropylmethoxy)-4-(5-(3,5-dimethylisoxazol-4-yl)-1-(1-(pyridin-2-yl)ethyl)-1H-pyrrolo[2,3-b]pyridin-3-yl)-5-methoxybenzoic acid]", "IC50": "0.0001 to 1"}
{"compound": "COc1cc(C(=O)O)cc(OCC(F)(F)F)c1-c1cn([C@@H](C)c2ccccn2)c2ncc(-c3c(C)noc3C)cc12", "note": "[P-0153, (S)-4-(5-(3,5-dimethylisoxazol-4-yl)-1-(1-(pyridin-2-yl)ethyl)-1H-pyrrolo[2,3-b]pyridin-3-yl)-3-methoxy-5-(2,2,2-trifluoroethoxy)benzoic acid]", "IC50": "0.0001 to 1"}
{"compound": "Cc1noc(C)c1-c1cnc2c(-c3ccc(C(=O)O)cc3)c(C(F)(F)F)n([C@@H](C)c3ccccn3)c2c1", "note": "[P-0154, (S)-4-(6-(3,5-dimethylisoxazol-4-yl)-1-(1-(pyridin-2-yl)ethyl)-2-(trifluoromethyl)-1H-pyrrolo[3,2-b]pyridin-3-yl)benzoic acid]", "IC50": "0.0001 to 1"}
{"compound": "Cc1noc(C)c1-c1cnc2c(-c3ccccc3Cl)cn(C(C)(c3ccccn3)c3ccccn3)c2c1", "note": "[P-0155, 4-(3-(2-chloropheny1)-1-(1,1-di(pyridin-2-yl)ethyl)-1H-pyrrolo[3,2-b]pyridin-6-yl)-3,5-dimethylisoxazole]", "IC50": "0.0001 to 1"}
{"compound": "Cc1noc(C)c1-c1cnc2c(c1)c(-c1ccc(C(=O)O)cc1OC(F)(F)F)cn2C(C1CC1)C1CC1", "note": "[P-0156, 4-(1-(dicyclopropylmethyl)-5-(3,5-dimethylisoxazol-4-yl)-1H-pyrrolo[2,3-b]pyridin-3-yl)-3-(trifluoromethoxy)benzoic acid]", "IC50": "0.0001 to 1"}
{"compound": "Cc1noc(C)c1-c1cnc2c(c1)c(-c1ccc(C(=O)O)cc1OC(F)(F)F)cn2CC1CC(F)(F)C1", "note": "[P-0157, 4-(1-((3,3-difluorocyclobutyl)methyl)-5-(3,5-dimethylisoxazol-4-yl)-1H-pyrrolo[2,3-b]pyridin-3-yl)-3-(trifluoromethoxy)benzoic acid]", "IC50": "0.0001 to 1"}
{"compound": "Cc1noc(C)c1-c1cnc2c(c1)c(-c1ccc(C(=O)O)cc1OC(F)(F)F)cn2-c1ccccn1", "note": "[P-0158, 4-(5-(3,5-dimethylisoxazol-4-yl)-1-(pyridin-2-yl)-1H-pyrrolo[2,3-b]pyridin-3-yl)-3-(trifluoromethoxy)benzoic acid]", "IC50": "0.0001 to 1"}
{"compound": "Cc1noc(C)c1-c1cnc2c(Cc3ccccn3)cn(-c3ccc(C(=O)O)cc3OC(F)(F)F)c2c1", "note": "[P-0159, 4-(6-(3,5-dimethylisoxazol-4-yl)-3-(pyridin-2-ylmethyl)-1H-pyrrolo[3,2-b]pyridin-1-yl)-3-(trifluoromethoxy)benzoic acid]", "IC50": "0.0001 to 1"}
